# Test results as given in US6380193B1, “Fused tricyclic compounds, methods and compositions for inhibiting PARP activity” (Guilford Pharmaceuticals Inc., priority 1998, dated 2002).
# Columns and labels:
# C57/BL male mice = experiment: Septic shock assay (LPS plus galactosamine challenge); assay type: in vivo, mouse; settings: 60, 20, 6 and 2 mg/kg daily IP for three days, first dose 30 minutes after challenge
# Experimental: Groups of 10 C57/BL male mice weighing 18 to 20 g were administered a test compound, 1-carboxynaphthalene-1-carboxamide at the doses of 60, 20, 6 and 2 mg/kg, daily, by intraperitoneal (IP) injection for three consecutive days. Each animal was first challenged with lipopolysaccharide (LPS, from E. Coli, LD100 of 20 mg/animal IV) plus galactosamine (20 mg/animal IV). The first dose of test compound in a suitable vehicle was given 30 minutes after challenge, and the second and third doses were given 24 hours later on day 2 and day 3 respectively, with only the surviving animals receiving the second or third dose of the test compound. Mortality was recorded every 12 hours after challenge for the three-day testing period. 1-Carboxy-naphthalene-1-carboxamide provided a protection against mortality from septic shock of about 40%.
# [1] = test system: human fibroblast cells lines (W138 or BJ cells); experiment: Proliferative capacity and lifespan of cells; assay type: cell-based
# Experimental: At the time of subdivision, the media is aspirated, and the cells rinsed with phosphate buffer saline (PBS) and then trypsinized. The cells are counted with a Coulter counter and plated at a density of 10^5 cells per cm^2 in 6-well tissue culture plates in DMEM/199 medium supplemented with 10% bovine calf serum and varying amounts ([…]: from a 100× stock solution in DMEM/M199 medium) of a PARP inhibitor of Formula I as disclosed herein. This process is repeated every 7 days until the cell appear to stop dividing. The untreated (control) cells reach senescence and stop dividing after about 40 days in culture. […] The cells treated with 1 mM 3-AB will still divide after 60 days in culture.
# colitis in rats = settings: rat, in vivo; cited from earlier work
# [2] = test system: cell viability, glucose metabolism, and DNA synthesis; settings: cited from earlier work
# [3] = test system: focal cerebral ischemia in male Long-Evans rats; experiment: Focal cerebral ischemia in rats (right distal MCA cauterization with bilateral temporary CCA occlusion), infarct by TTC staining; assay type: in vivo, rat
# Experimental: Focal cerebral ischemia was produced by cauterization of the right distal MCA (middle cerebral artery) with bilateral temporary common carotid artery occlusion in male Long-Evans rats for 90 minutes. All procedures performed on the animals were approved by the University Institutional Animal Care and Use Committee of the University of Pennsylvania. A total of 42 rats (weights: 230-340 g) obtained from Charles River were used in this study. The animals fasted overnight with free access to water prior to the surgical procedure.
# Two hours prior to MCA occlusion, varying amounts (control, n=14; 5 mg/kg, n=7; 10 mg/kg, n=7; 20 mg/kg, n=7; and 40 mg/kg, n=7) of the compound, 3,4-dihydro-5-[4-(1-piperidinyl)-butoxy]-1(2H)-isoquinolinone (“DPQ”) were dissolved in dimethyl sulfoxide (DMSO) using a sonicator. A volume of 1.28 ml/kg of the resulting solution was injected intraperitoneally into […].
# Focal cerebral ischemia was produced by cauterization of the distal portion of the right MCA with bilateral temporary common carotid artery (CCA) occlusion by the procedure of Chen et al., “A Model of Focal Ischemic Stroke in the Rat: Reproducible Extensive Cortical Infarction”, Stroke 17:738-43 (1986) and/or Liu et al., “Polyethylene Glycol-conjugated Superoxide Dismutase and Catalase Reduce Ischemic Brain Injury”, Am. J. Physiol. 256:H589-93 (1989), both of which are hereby incorporated by reference. […]
# Two hours after MCA occlusion, the animals were given the same doses of the PARP inhibitor as in the pre-treatment. […] To avoid artifacts due to edema, the damaged area was calculated by subtracting the area of the normal tissue in the hemisphere ipsilateral to the stroke from the area of the hemisphere contralateral to the stroke, by the method of Swanson et al., “A Semiautomated Method for Measuring Brain Infarct Volume”, J. Cereb. […] The total volume of infarction was calculated by summation of the damaged volume of the brain slices.
# endotoxic shock = settings: in vivo; cited from earlier work
structure (smiles),measurement,setting,value
"NC(=O)C1(C(=O)O)CC=Cc2ccccc21 (centres unmarked) [1-Carboxy-naphthalene-1-carboxamide, 1-carboxynaphthalene-1-carboxamide]",protection against mortality from septic shock,C57/BL male mice,about 40%
NC(=O)c1cccc(N)c1 [3-aminobenzamide],lifespan and proliferative capacity of the cells,[1]; 10 uM,little or no effect
same,lifespan and proliferative capacity of the cells,[1]; 100 uM,lengthen the lifespan of the cells
same,lifespan and proliferative capacity of the cells,[1]; 1 mM,dramatically increases the lifespan and proliferative capacity of the cells
same,"inflammatory response, morphology and energetic status of the distal colon",colitis in rats,reduced the inflammatory response and restored the morphology and the energetic status of the distal colon
same,additional metabolic effects,[2],"shown to affect cell viability, glucose metabolism, and DNA synthesis"
"O=C1NCCc2c(OCCCCN3CCCCC3)cccc21 [DPQ, 3,4-dihydro-5-[4-(1-piperidinyl)-butoxy]-1(2H)-isoquinolinone]",cross-sectional infarct area curve (FIG. 1),[3]; 5 mg/kg,approximately halfway between the control and the 10 mg/kg curves
same,cross-sectional infarct area curve (FIG. 1),[3]; 20 mg/kg,approximately halfway between the control and the 10 mg/kg curves
same,cross-sectional infarct area curve (FIG. 1),[3]; 40 mg/kg,close to the control
NC(=O)c1ccccc1 [benzamide],additional metabolic effects,[2],"shown to affect cell viability, glucose metabolism, and DNA synthesis"
NC(=O)c1cccnc1 [nicotinamide],"delayed, NO-mediated vascular failure",endotoxic shock,"protects against delayed, NO-mediated vascular failure in endotoxic shock"
